Target: T1, human nicotinic acetylcholine receptor subtype a4b2 (Homo sapiens, UniProt P17787+P43681)
T1 construct: expressed in transfected cells
Test: Characterization of hα4β2 positive allosteric modulators using FLIPR
Format: cell-based
Conditions: shift of nicotine pEC50 in presence of 10 μM test compound; HEK-293 cells stably expressing hα4β2; fluo-4 calcium FLIPR
Method: Characterization of hα4β2 Positive Allosteric Modulators Using FLIPR
The modulator activity is determined as a fluorescence-based assay using a Fluorometric Imaging Plate Reader (FLIPR) as described below in more detail.
HEK-hα4β2 cells were seeded on poly-D-lysin-coated 384 well microtiter plates and allowed to proliferate for 24 h. Dye loading was performed by incubating cells with 2 μM fluo-4/AM for 1.5 h at room temperature. Dye not taken up by the cells was removed by aspiration, followed by three washing cycles with NMDG Ringer buffer (containing in mM: 140 NMDG, 5 KCl, 1 MgCl2, 10 CaCl2, 10 HEPES, pH 7.4). The microtiter plates were then placed in the FLIPR and subjected to test solutions.
Full concentration-response curves of nicotine were generated in the absence and presence test compound. Background-subtracted nicotine-mediated calcium responses were determined and normalized to maximal nicotine control responses. Nicotine potencies (expressed as pEC50) were calculated and the difference between the functional potency in the absence and presence of test compound was determined (Δ pEC50).
The modulatory activity of compounds of the invention determined as ΔpEC50 values in the presence of 10 μM of test compound are presented in Table 1 below.

T1 sequence (P43681 29-627 limits assumed): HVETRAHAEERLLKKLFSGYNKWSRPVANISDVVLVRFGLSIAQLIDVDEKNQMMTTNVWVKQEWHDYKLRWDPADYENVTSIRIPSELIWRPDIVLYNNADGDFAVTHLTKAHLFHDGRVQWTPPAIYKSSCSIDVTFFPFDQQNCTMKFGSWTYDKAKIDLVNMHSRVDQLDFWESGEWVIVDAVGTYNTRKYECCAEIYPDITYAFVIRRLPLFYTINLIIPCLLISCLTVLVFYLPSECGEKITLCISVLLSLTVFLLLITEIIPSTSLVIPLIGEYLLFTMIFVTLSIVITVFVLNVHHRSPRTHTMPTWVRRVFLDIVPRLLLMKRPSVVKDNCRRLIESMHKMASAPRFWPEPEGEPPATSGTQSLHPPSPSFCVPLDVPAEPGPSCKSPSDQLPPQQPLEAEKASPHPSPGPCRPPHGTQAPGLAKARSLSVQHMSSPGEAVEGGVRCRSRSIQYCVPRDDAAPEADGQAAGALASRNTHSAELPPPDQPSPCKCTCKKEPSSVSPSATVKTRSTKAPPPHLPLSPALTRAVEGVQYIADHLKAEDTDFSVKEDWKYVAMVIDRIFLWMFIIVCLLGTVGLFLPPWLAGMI
T1 sequence (P17787 26-502): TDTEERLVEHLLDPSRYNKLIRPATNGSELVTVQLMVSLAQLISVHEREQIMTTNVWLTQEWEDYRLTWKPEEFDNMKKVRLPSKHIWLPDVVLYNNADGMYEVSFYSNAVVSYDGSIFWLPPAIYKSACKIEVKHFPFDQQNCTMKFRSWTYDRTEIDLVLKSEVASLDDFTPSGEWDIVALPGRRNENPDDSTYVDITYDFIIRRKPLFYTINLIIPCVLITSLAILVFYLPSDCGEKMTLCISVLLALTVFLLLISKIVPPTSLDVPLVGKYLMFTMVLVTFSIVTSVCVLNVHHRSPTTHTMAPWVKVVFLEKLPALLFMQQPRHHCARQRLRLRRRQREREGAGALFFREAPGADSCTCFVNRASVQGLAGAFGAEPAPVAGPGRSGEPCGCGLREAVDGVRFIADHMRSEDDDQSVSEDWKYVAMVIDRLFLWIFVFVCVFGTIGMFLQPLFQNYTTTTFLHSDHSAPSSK

| ΔpEC50 | SMILES |
| --- | --- |
| 1.7 | Fc1cncc(-c2nnn(-c3cccnc3)n2)c1 [Compound B16, 3-Fluoro-5-[2-(3-pyridyl)tetrazol-5-yl]pyridine] |
| 2.0 | Clc1ccc(-n2nnc(-c3cccnc3)n2)cn1 [Compound B17, 2-chloro-5-[5-(3-pyridyl)tetrazol-2-yl]pyridine] |
| 1.5 | Fc1ccc(-n2nnc(-c3cncc(Cl)c3)n2)cn1 [Compound B18, 3-chloro-5-[2-(6-fluoro-3-pyridyl)tetrazol-5-yl]pyridine] |
| 1.6 | Fc1cncc(-c2nnn(-c3ccc(Cl)nc3)n2)c1 [Compound B19, 2-chloro-5-[5-(5-fluoro-3-pyridyl)tetrazol-2-yl]pyridine] |
| 0.74 | Fc1cncc(-n2nnc(-c3ccc(Cl)nc3)n2)c1 [Compound B20, 2-chloro-5-[2-(5-fluoro-3-pyridyl)tetrazol-5-yl]pyridine] |
| 0.8 | Clc1cncc(-n2nnc(-c3cccnc3)n2)c1 [Compound B21, 3-chloro-5-[5-(3-pyridyl)tetrazol-2-yl]pyridine] |
| 1.1 | Fc1cncc(-n2nnc(-c3cncc(Cl)c3)n2)c1 [Compound B22, 3-chloro-5-[2-(5-fluoro-3-pyridyl)tetrazol-5-yl]pyridine] |
| 1.5 | Brc1cncc(-c2nnn(-c3cccnc3)n2)c1 [Compound B23, 3-bromo-5-[2-(3-pyridyl)tetrazol-5-yl]pyridine] |
| 1.6 | Fc1ccc(-n2nnc(-c3cccnc3F)n2)cn1 [Compound B24, 2-fluoro-3-[2-(6-fluoro-3-pyridyl)tetrazol-5-yl]pyridine] |
| 0.58 | Fc1ccc(-n2nnc(-c3cncc(I)c3)n2)cn1 [Compound B25, 2-fluoro-5-[5-(5-iodo-3-pyridyl)tetrazol-2-yl]pyridine] |

The next lines start with the compound.

| SMILES | ΔpEC50 |
| --- | --- |
| Fc1cncc(-n2nnc(-c3cccnc3)n2)c1 [Compound A1, 3-Fluoro-5-[5-(3-pyridyl)tetrazol-2-yl]pyridine] | 1.5 |
| O=C(O)/C=C/C(=O)O.c1cncc(-c2nnn(-c3cccnc3)n2)c1 [Compound B1, 3-[2-(3-Pyridyl)tetrazol-5-yl]pyridine fumarate] | 1.8 |
| Brc1cncc(-n2nnc(-c3cccnc3)n2)c1 [Compound B2, 3-Bromo-5-[5-(3-pyridyl)tetrazol-2-yl]pyridine] | 0.55 |
| COc1cncc(-n2nnc(-c3cccnc3)n2)c1 [Compound B3, 3-Methoxy-5-[5-(3-pyridyl)tetrazol-2-yl]pyridine] | −0.16 |
| Cc1ccc(-c2nnn(-c3cccnc3)n2)cn1 [Compound B4, 2-Methyl-5-[2-(3-pyridyl)tetrazol-5-yl]pyridine] | 1.0 |
| Cc1ccc(-n2nnc(-c3cccnc3)n2)cn1 [Compound B5, 2-Methyl-5-[5-(3-pyridyl)tetrazol-2-yl]pyridine] | 1.7 |
| Cc1cncc(-n2nnc(-c3cccnc3)n2)c1 [Compound B6, 3-Methyl-5-[5-(3-pyridyl)tetrazol-2-yl]pyridine] | 0.16 |
| Cc1ncccc1-n1nnc(-c2cccnc2)n1 [Compound B7, 2-Methyl-3-[5-(3-pyridyl)tetrazol-2-yl]pyridine] | 0.11 |
| Cc1ncccc1-c1nnn(-c2cccnc2)n1 [Compound B8, 2-Methyl-3-[2-(3-pyridyl)tetrazol-5-yl]pyridine] | −0.29 |
| Fc1ccc(-n2nnc(-c3cccnc3)n2)cn1 [Compound B9, 2-Fluoro-5-[5-(3-pyridyl)tetrazol-2-yl]pyridine] | 1.9 |
| Fc1cncc(-c2nnn(-c3cncc(F)c3)n2)c1 [Compound B10, 3-Fluoro-5-[2-(5-fluoro-3-pyridyl)tetrazol-5-yl]pyridine] | 1.3 |
| Fc1cncc(-c2nnn(-c3ccc(F)nc3)n2)c1 [Compound B11, 3-Fluoro-5-[2-(6-fluoro-3-pyridyl)tetrazol-5-yl]pyridine] | 1.4 |
| Fc1cncc(-n2nnc(-c3ccc(F)nc3)n2)c1 [Compound B12, 2-Fluoro-5-[2-(5-fluoro-3-pyridyl)tetrazol-5-yl]pyridine] | 1.6 |
| Clc1ccc(-c2nnn(-c3cccnc3)n2)cn1 [Compound B13, 2-Chloro-5-[2-(3-pyridyl)tetrazol-5-yl]pyridine] | 1.8 |
| Fc1ccc(-c2nnn(-c3cccnc3)n2)cn1 [Compound B14, 2-Fluoro-5-[2-(3-pyridyl)tetrazol-5-yl]pyridine] | 1.5 |
| Clc1cncc(-c2nnn(-c3cccnc3)n2)c1 [Compound B15, 3-Chloro-5-[2-(3-pyridyl)tetrazol-5-yl]pyridine] | 1.7 |

— patent publication US20120309792A1, “TETRAZOLE DERIVATIVES AS NICOTINIC ACETYLCHOLINE RECEPTOR MODULATORS” (NEUROSEARCH A/S, priority 2009, published 2012)
